# From patent publication US20090075925A1, “Methods and Compositions Related to APOBEC-1 Expression” (priority 2006, published 2009)
# pEC50, pIC50: −log10 of the molar value. Values joined by “and” are separate entries in the source; they are usually repeats but may differ in a detail not shown here. Equal entries are not always repeated. Where two headings read alike, the source gives them in different places.
# Columns and labels:
# PKA [1] = settings: cited from earlier work
# apoB mRNA editing = test system: apoB mRNA editing
# Procedure: Protein phosphatase inhibitor studies. […] The compounds' effects on apoB mRNA editing were evaluated by RT-PCR and poisoned-primer extension analysis (Sowden et al. Rna 2:274-88 (1996)). The effect of 470 nM cantharidin on ACF subcellular distribution was investigated by treating primary hepatocyte cultures for 6 hours followed by nuclear and cytoplasmic extract preparation.
# It was reasoned that if phosphorylation of ACF regulated editing activity, treatment of rat primary hepatocytes with phosphatase inhibitors might stimulate apoB mRNA editing activity. […] The experiments (n=4-6) were done over a number of months and therefore represent primary hepatocytes from several rats.
# Editing activity was quantified from primary hepatocytes incubated with 10-100-times the EC50 of the various […] (Calbiochem).
# PKC [2] = settings: cited from earlier work
# PKA [3] = settings: cited from earlier work; remark: listed apart in the source
# ACF [4] = test: ACF phosphorylation in 32P-labeled rat primary hepatocytes (ACF immunoprecipitation, autoradiography); type: cell-based
# Procedure: In vivo phosphorylation of ACF. In vivo ^32P labeling was performed by intraperitoneal injection of rats with 12.5 mCi of orthophosphoric acid (10 mCi/ml ^32PO4; NEN, Boston, Mass.) buffered with 50 mM HEPES, pH 7.0 and 150 mM NaCl. After 4 hours, rats were sacrificed and hepatic cytoplasmic and nuclear extracts prepared. Primary hepatocyte cultures in 60 mm dishes were incubated in phosphate-free Minimum Essential Eagle Media (Sigma) containing 0.1 nM porcine insulin for 6 hours and subsequently in fresh media containing 10 nM insulin (equivalent to that seen in post-prandial serum) or 0.45% to 0.9% ethanol (AAPER Alcohol and Chemical Co., Shelbyville, Ky.) (Van Mater et al. (1998), Yang et al. (2000)) plus 2.0 mCi orthophosphoric acid. Cultures were labeled for 4 hours prior to extract preparation.
# To evaluate the effect of phosphatase inhibition on ACF phosphorylation, cultures were pre-incubated for 2 hours with 470 nM cantharadin in phosphate-free Waymouth's media and subsequently supplemented with 0.5 mCi ^32pO4 and incubated for an additional 4 hours. Cultures were harvested and subcellular extracts prepared.
# Immunological techniques. […] For immunoprecipitation analyses all radiolabeled extracts were adjusted to 5 mM MgCl2 and digested with 100 units of DNase I (Promega), RNase T1 (Roche, Ind.), and RNase A (Sigma) for 1 hour on ice to remove radiolabeled nucleic acid. Where applicable, extracts were incubated overnight with ACF CT antibody at 4° C. and subsequently reacted with Protein A-agarose (Oncogene Research Products, Boston, Mass.) pre-washed with 1×TBS/10 mM NaF. The immuno-absorbed material was washed 3 times with 1×TBS/10 mM NaF, 3 times with 1×TBS/1 M NaCl (Yang et al. (1997)) and lastly 3 times with 1×TBS. Immuno-absorbed material to be treated with alkaline phosphatase was washed with 50 mM Tris, pH 8.4, 1 mM MgCl2, 0.1 mM ZnCl2, 25% glycerol and then incubated with 5 U CIAP for 1 hour at 30° C. and then washed 6 times with 1×TBS. ACF-antibody complexes were eluted with 3 M sodium thiocyanate, acetone precipitated and analyzed by 10.5% SDS-PAGE followed by autoradiography and/or western blotting with ACF NT antibody. For ACF immunoprecipitation from gradient fractions an equal volume of pooled gradient fractions from sedimentation zones of interest were reacted with sub-saturating amounts of ACF CT antibody to ensure that the recovery of phospho-ACF was not simply a reflection of ACF abundance in each zone.
# To evaluate this, cytoplasmic and nuclear extracts from radiolabeled primary hepatocyte cultures were sedimented through 10%-50% glycerol gradients. […] The ACF immunoprecipitates were resolved by SDS-PAGE, transferred to nitrocellulose, autoradiographed and subjected to phosphorimager scanning to detect and quantify radiolabeled proteins prior to immunoblotting with the ACF NT antibody.
# ACF64 = test: ACF phosphorylation in 32P-labeled McArdle cells; type: cell-based, rat; settings: 6 hour
# Procedure: Numerous kinase inhibitors were evaluated but only those acting on Protein Kinase C affected editing activity. […] Cell extracts were immunoprecipitated with the ACF C-terminal specific antibody and analyzed by PAGE and autoradiography (FIG. 23). […] However, at and above the IC50 of PKC, phosphorylation of ACF64 was inhibited by 90% and 100%.
# PKC [5] = settings: cited from earlier work; remark: listed apart in the source
# ACF [6] = test: hepatic ACF nuclear retention in lean and ob/ob mice after insulin challenge; type: in vivo, mouse; settings: 4 h following 1.5 IU insulin/kg BW
# Procedure: The mice are insulin-resistant as evident in elevated blood glucose (180-220 mg/dl after fasting) and lack a significant response to challenge when injected with 1.5 IU of insulin/kg BW. It has been shown that apobec-1 gene expression and apoB mRNA editing is markedly stimulated by insulin (Sowden, M. P. et al. (2002); Funahashi, T. F. et al (1995); Phung, T. L. et al. Metabolism 45, 1056-1058 (1996); von Wronski, M. A. et al. Metabolism 47, 869-73 (1998)). As a further indicator of the insulin-resistant state of these animals, it is apparent that hepatic apoB mRNA editing is not stimulated compared to cogenic lean mice (FIG. 40). The results from three fed animals as lean, ob/ob and 4 h Insulin-treated ob/ob mice are shown. Editing was evaluated using the established poisoned-primer extension assay for quantifying edited apoB mRNA where % editing is calculated from PhosphorImager scans as the counts in the edited band, divided by the sum of the counts in the edited plus unedited bands X 100. The nuclear-cytoplasmic distribution of ACF was next assessed in lean and ob/ob mouse liver without or with insulin challenge (4 h following 1.5 IU insulin/kg BW). […] The fold-nuclear retention of total cellular ACF was calculated from these values and is provided at the bottom of the image.
# [7] = 10 mg/kg per day IP, 26 day period; cited from earlier work
compound,measurement,setting,value
Nc1ncnc2c1nc(Sc1ccc(Cl)cc1)n2[C@@H]1O[C@@H]2COP(=O)(O)O[C@H]2[C@H]1O [8-cpt cAMP],pEC50,PKA [1],5.70
same,"apoB mRNA editing, Mean",apoB mRNA editing; 2 μM,61.2%
same,"apoB mRNA editing, Mean",apoB mRNA editing; 20 μM,59.3%
same,"apoB mRNA editing, Mean",apoB mRNA editing; 200 μM,59.6%
NCCNS(=O)(=O)c1cccc2c(Cl)cccc12 [A3],pIC50,PKC [2],4.33
same,pIC50,PKA [3],5.40
same,concentration at which ACF phosphorylation was inhibited,"ACF [4]; 32Pi 500 μCi/ml, 6 hours",≥ 40 µM
same,effect on editing in hepatocytes,apoB mRNA editing,stimulated
same,inhibition of ACF64 phosphorylation,ACF64; above the IC50 of PKC (120 μM),100%
same,decrease of ACF phosphorylation relative to untreated cells,ACF64; at the IC50 of PKA (4 μM),20%
same,inhibition of ACF64 phosphorylation,ACF64; at the IC50 of PKC (40 μM),90%
CC(C)[C@H]1C(=O)N[C@H](CO)Cc2c[nH]c3cccc(c23)N1C [Indolactam V],pEC50,PKC [5],6.70
same,"apoB mRNA editing, Mean",apoB mRNA editing; 12 μM,92.47%
same,editing activity compared to solvent treated controls (from 65%),"apoB mRNA editing; 12 μM, SEM 4.8, n=2",92%
same,"apoB mRNA editing, Mean",apoB mRNA editing; 120 μM,91.57%
same,effect on apoB mRNA editing,apoB mRNA editing; concentration not given,stimulated editing
insulin: porcine insulin (Sigma),increase of phosphorylated ACF in nuclear 27S editosomes,"ACF [4]; 10 nM insulin, 4 hours",2.5 fold and 2 fold
same,"hepatic ACF nuclear retention, fold change",ACF [6]; lean mice,4 fold
same,"hepatic ACF nuclear retention, fold change",ACF [6]; ob/ob mice,0.9 fold
same,"editing in metabolic state of rat hepatocytes (model, basal ~65%)",apoB mRNA editing,~80%
"leptin: protein product of the ob gene, 16 kDa circulating hormone",decrease in weight at the conclusion of the study,[7],~20%
